The values that follow come from patent US12247033B2, “Triazole-substituted imidazo[1,2-a]pyrimidines as cGAS inhibitors” (GlaxoSmithKline Intellectual Property Development Limited, priority 2022, dated 2025).

The test system of data set [1] is cGAS pathway. Description: Whole blood (hWB) cytokine release assay (96-well, Bacmam stimulation, plasma IP-10 by Meso-Scale Discovery plates). The data set is classed as cell-based. Conditions: Table 4, human whole blood from individual healthy donors, 6 h; for IC50: Homo sapiens, read-out: hWB pXC50 (converted). How it is done:
The whole blood (hWB) cytokine release assay was performed as follows.
Human whole blood was collected from individual healthy donors into a 60 ml syringe containing sodium heparin (5 ml sodium heparin per syringe; Cat #309653, Becton-Dickinson, NJ, US). In a biosafety cabinet, 140 ul of the collected blood was transferred to each well of a 96-well flat bottom plate (Cat #167008, VWR, PA, US). The DMSO stock solution of small molecule cGAS inhibitor (10 mM stock solution) was diluted in PBS to prepare 10× solutions (3-fold dilutions) and 20 ul of the prepared 10× solutions was added to appropriate wells. Plates were shaken for 5 minutes at room temperature then incubated at 37° C. for 30 minutes. The stock solution of purified Bacmam was diluted with PBS+0.1% BSA to prepare a 4% (v/v) solution (10×). To activate the cGAS pathway, 20 uL of Bacmam was added to the blood, and the plates were shaken for 10 minutes at room temperature. PBS was added to achieve a final volume of 200 ul. Plates were then incubated at 37° C. for 6 hours.
Plates were removed from incubator and 100 uL/well PBS added. Plates were gently shaken for 10 minutes at room temperature and centrifuged (3000 rpm, 10 minutes) at room temperature. The plasma layer was removed and transferred to a separate 96-well plate and maintained at −80° C.
Plasma samples were measured for IP-10 levels using the IP-10 detection (U-plex or V-plex) plates (Cat #K151-UFK-4; Cat #K151-NVD-4; Meso-Scale Discovery, Inc.).

The target in data set [2] is human CGAS (157-522) (Homo sapiens, UniProt Q8N884). The data set can be described thus: biochemical.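 Further: biochemical enzyme reaction, 2′3′-cGAMP product measured by RapidFire mass spectrometry (MRM) normalised to c-di-UMP internal standard, inhibition of product formation relative to high and low control wells.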
Sequence of human CGAS (157-522) (Q8N884 157-522): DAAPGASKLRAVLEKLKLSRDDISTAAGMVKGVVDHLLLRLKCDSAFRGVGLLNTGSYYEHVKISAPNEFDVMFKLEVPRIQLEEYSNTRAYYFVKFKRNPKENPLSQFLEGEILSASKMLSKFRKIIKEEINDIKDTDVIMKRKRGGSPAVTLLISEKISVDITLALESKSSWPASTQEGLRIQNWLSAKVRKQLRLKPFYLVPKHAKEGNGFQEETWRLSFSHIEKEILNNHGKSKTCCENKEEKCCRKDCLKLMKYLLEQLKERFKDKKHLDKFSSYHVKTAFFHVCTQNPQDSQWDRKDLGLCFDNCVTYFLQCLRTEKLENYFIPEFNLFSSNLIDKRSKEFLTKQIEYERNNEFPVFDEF
A short description of data set [3]: FaSSIF solubility (Fasted State Simulated Intestinal Fluid). The format is physicochemical. Particulars: thermodynamic from solid, FaSSIF pH 6.5, 4 h equilibration at room temperature, dynamic range 1-1000 μg/mL. The protocol:
1 mL of FaSSIF buffer (3 mM sodium taurocholate, 0.75 mM lecithin in sodium phosphate buffer at pH 6.5) was added to manually weighed 1 mg of the solid compound in a 4 mL vial. […] The residual solid was removed by filtration. The supernatant solution was quantified by HPLC-UV using single point calibration of a known concentration of the compound in DMSO. The dynamic range of the assay was 1-1000 μg/mL.

For data set [4], the system named is CGAS. The data set can be described thus: CGAS whole blood cytokine release assay (384-well, BacMam stimulation, IP-10 by cytometric bead array). The format is cell-based. Particulars: Homo sapiens, 6 h; read-out: hWB pXC50 (converted). The gist of the method:
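Heparinised human donor whole blood mixed with serially diluted compound plus Null BacMam stimulus, incubated 6 h at 37° C, 5% CO2. Supernatant IP-10 quantified by cytometric bead array on flow cytometer (488 nm excitation, 585/40 nm emission); inhibition of IP-10 calculated.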

In brackets after ≈: the same amount, converted by molar mass. Several values for one entry are separate records, joined by “and”; a condition that tells them apart may be missing. Equal entries are not always repeated. Structures can show the parent of a compound that is named as a salt. Where only a bound is given, the exact number is not on record here.

For `COc1nc2c(-n3ccnc3)c(-c3nnc(C(F)(F)F)[nH]3)[nH]c2cc1Cl`, in data set [1], the “hWB pXC50” value is < 4.5 and 5.0. In data set [2], this compound had an IC50 of 63.1 nM.

As to `FC(F)(F)c1n[nH]c(-c2nc3ncccn3c2-c2c[nH]cn2)n1` [Example 1, 5-[3-(1H-imidazol-4-yl)imidazo[1,2-a]pyrimidin-2-yl]-3-(trifluoromethyl)-1H-1,2,4-triazole], the solubility (in general, the concentration that dissolves in the medium under given conditions) at 4 h in data set [3] is 4 µg/mL (≈ 12.5 µM). For the same compound, the IC50 in data set [4] is 158 nM.

Take `Fc1cnc2nc(-c3nc(C(F)(F)F)n[nH]3)c(-c3cnc[nH]3)n2c1` [Example 2, 5-[6-fluoro-3-(1H-imidazol-5-yl)imidazo[1,2-a]pyrimidin-2-yl]-3-(trifluoromethyl)-1H-1,2,4-triazole]: the solubility at 4 h in data set [3] is 5 µg/mL (≈ 14.8 µM). Besides, the IC50 was 316 nM in data set [4], 251 nM in data set [1] and 3.98 nM in data set [2].

In turn, `O=C(O)CCC(=O)OCn1cnc(-c2c(-c3nc(C(F)(F)F)n[nH]3)nc3ncccn23)c1` [Example 23, 4-oxo-4-[(4-{2-[3-(trifluoromethyl)-1H-1,2,4-triazol-5-yl]imidazo[1,2-a]pyrimidin-3-yl}-1H-imidazol-1-yl)methoxy]butanoic acid] had a solubility at 4 h in data set [3] of 455 µg/mL (≈ 1010 µM). The figures for the IC50 in data set [4] and in data set [2] were 794 nM and 251 nM, respectively.

For `CNCC(=O)OCc1cccnc1N(C)C(=O)OC(C)n1cncc1-c1c(-c2nc(C(F)(F)F)n[nH]2)nc2ncccn12` (centres unmarked) [Example 25, {2-[methyl({[1-(5-{2-[3-(trifluoromethyl)-1H-1,2,4-triazol-5-yl]imidazo[1,2-a]pyrimidin-3-yl}-1H-imidazol-1-yl)ethoxy]carbonyl})amino]pyridin-3-yl}methyl 2-(methylamino)acetate, hydrochloride salt], the solubility at 4 h in data set [3] is greater than 1000 µg/mL. Further, the IC50 is 316 nM in data set [4] and 25.1 nM in data set [2].

In turn, `CNCCOC(=O)OCn1cnc(-c2c(-c3nc(C(F)(F)F)nn3COC(=O)OCCNC)nc3ncccn23)c1` [Example 27, [4-(2-{1-[({[2-(methylamino)ethoxy]carbonyl}oxy)methyl]-3-(trifluoromethyl)-1H-1,2,4-triazol-5-yl}imidazo[1,2-a]pyrimidin-3-yl)-1H-imidazol-1-yl]methyl 2-(methylamino)ethyl carbonate, 2 trifluoroacetic acid salt] showed a solubility at 4 h in data set [3] of 298 µg/mL. In addition, in data set [4], the IC50 was 158 nM.

For the compound `CNCCOC(=O)OCn1nc(C(F)(F)F)nc1-c1nc2ncccn2c1-c1cnc[nH]1` [Example 28, {5-[3-(1H-imidazol-5-yl)imidazo[1,2-a]pyrimidin-2-yl]-3-(trifluoromethyl)-1H-1,2,4-triazol-1-yl}methyl 2-(methylamino)ethyl carbonate, 2 trifluoroacetic acid salt], the solubility at 4 h in data set [3] is 208 µg/mL. Further, the IC50 in data set [4] is 316 nM; in data set [2], 3.16 nM.

Regarding `O=C(CCCOP(=O)(O)O)OCn1cnc(-c2c(-c3nc(C(F)(F)F)n[nH]3)nc3ncccn23)c1` [Example 29, {4-oxo-4-[(4-{2-[3-(trifluoromethyl)-1H-1,2,4-triazol-5-yl]imidazo[1,2-a]pyrimidin-3-yl}-1H-imidazol-1-yl)methoxy]butoxy}phosphonic acid, trifluoroacetic acid salt], the solubility at 4 h in data set [3] is greater than 1000 µg/mL. Also, the IC50 in data set [4] is 316 nM; in data set [2], 31.6 nM.

`FC(F)(F)c1nnc(-c2[nH]c3c(Cl)c(Cl)ccc3c2-c2cn[nH]c2)[nH]1` [WO 2022/137085 Example 11]: in data set [1], the IC50 is greater than 31600 nM and the “hWB pXC50” value was found to be 4.6.

With `Cn1c(-c2nnc(C(F)(F)F)[nH]2)c(-n2ccnc2)c2ccc(Cl)c(Cl)c21` [WO 2022/137085 Example 109], in data set [1], the IC50 is greater than 31600 nM and the “hWB pXC50” value is recorded as <4.5, <4.5.
